# Source: paper PMC8584173, “The Cytotoxic Effect of Copper (II) Complexes with Halogenated 1,3-Disubstituted Arylthioureas on Cancer and Bacterial Cells” (International Journal of Molecular Sciences, 2021)
# How the values were obtained:
# [1] = tested on: SW620 (human metastatic colon cancer); assay: MTT cytotoxicity assay, SW620; assay type: cell-based; settings: SW620, 72 h
# Method: (§1) The human primary (SW480), metastatic (SW620) colon cancer, metastatic prostate cancer (PC3) and human immortal keratinocyte (HaCaT) cell lines were purchased from the American Type Culture Collection (ATCC, Rockville, USA). The cells were cultured in medium according to protocols (MEM for SW480 and SW620, RPMI 1640 for PC3 and DMEM for HaCaT cells) supplemented with 10% fetal bovine serum (FBS), penicillin (100 U/mL) and streptomycin (100 μg/mL) and cultured in 37 °C/ 5% CO2 humidified incubator. The cells were cultured until appropriate confluence was achieved (80–90%). Next, they were harvested by treatment with 0.25% trypsin (Gibco Life Technologies, USA) and used for studies.
# (§2) Cells without studied compounds in medium were used as a control.
# (§3) The cell viability was assessed by determination of MTT salt (3-(4,5-dimethylthiazol-2-yl)-2,5-diphenyltetrazolium bromide) conversion by mitochondrial dehydrogenase. MTT assay was performed as previously described. Experiments were repeated three times. Cell viability was presented as a percentage of MTT reduction in the treated cells versus the control cells. Number of viable cells cultured without studied compounds was assumed to be 100%. Decreased relative MTT level means decreased cell viability.
# [2] = tested on: PC3 (human metastatic prostate cancer); assay: MTT cytotoxicity assay, PC3; assay type: cell-based; settings: for IC50: PC3, 72 h, MTT; for fold more active than cisplatin: PC3 cell lines
# Method: as §1, §2
# as §3, with “viability. Thiourea complexes with the highest cytotoxic potential assessed by MTT determination (with the lowest IC50) were chosen for subsequent assessments of cytotoxicity mechanisms.” for “viability.”
# [3] = tested on: S. epidermidis ATCC 12228; assay: MIC, twofold serial microdilution; assay type: cell-based, Staphylococcus epidermidis; settings: S. epidermidis ATCC 12228, 18 h, 35 °C
# Method: (§4) The antimicrobial activity of the compounds was tested on Gram-positive bacteria (Staphylococcus aureus NCTC 4163, Staphylococcus aureus ATCC 25923, Staphylococcus aureus ATCC 6538, Staphylococcus aureus ATCC 29213, Staphylococcus epidermidis ATCC 12228, Staphylococcus epidermidis ATCC 35984), Gram-negative rods (Escherichia coli ATCC 10538, Escherichia coli ATCC 25922, Pseudomonas aeruginosa ATCC 15442, Pseudomonas aeruginosa ATCC 27863) and yeasts (Candida albicans ATCC 10231, Candida albicans ATCC 90028, Candida parapsilosis ATCC 22019). Hospital methicillin-resistant strains of Staphylococcus aureus and Staphylococcus epidermidis were obtained from the collection of the Department of Pharmaceutical Microbiology, Medical University of Warsaw, Poland.
# (§5) Antifungal activities were assessed using Mueller–Hinton agar + 2% glucose and 0.5 µg/mL methylene blue dye medium. Sterile filter paper discs (9 mm diameter, Whatman Number 3 chromatography paper) were dripped with tested compound solutions (in dimethylsulfoxide, DMSO) to load 400 μg of a given compound per disc. Dry discs were placed on the surface of appropriate agar medium. The results (diameter of the growth inhibition zone) were read after 18 h of incubation at 35 °C. Minimal inhibitory concentration (MIC) was tested by the twofold serial microdilution method (in 96-well microtiter plates) using Mueller–Hinton broth medium (Beckton Dickinson) for bacteria or RPMI-1640 medium for Candida species, according to CLSI guidelines. The stock solution of tested agent was prepared in DMSO and diluted in sterile water. […] The final inoculum of all studied microorganisms was 10^5 CFU/ mL^−1 (colony forming units per ml). Minimal inhibitory concentrations (the lowest concentration of a tested agent that prevents visible growth of a microorganism) were read after 18 h (bacteria) or 24 h (yeasts) of incubation at 35 °C.
# E. coli ATCC 25922 = assay: MIC, twofold serial microdilution; assay type: cell-based, Escherichia coli; settings: E. coli ATCC 25922, 18 h, 35 °C
# Method: as §4, §5
# E. coli NCTC 10538 = assay: MIC, twofold serial microdilution; assay type: cell-based, Escherichia coli; settings: E. coli NCTC 10538, 18 h, 35 °C
# Method: as §4, §5
# P. aeruginosa ATCC 15442 = assay: MIC, twofold serial microdilution; assay type: cell-based, Pseudomonas aeruginosa; settings: P. aeruginosa ATCC 15442, 18 h, 35 °C
# Method: as §4, §5
# P. aeruginosa ATCC 27853 = assay: MIC, twofold serial microdilution; assay type: cell-based, Pseudomonas aeruginosa; settings: P. aeruginosa ATCC 27853, 18 h, 35 °C
# Method: as §4, §5
# C. albicans ATCC 10231 = assay: MIC, twofold serial microdilution; assay type: cell-based, Candida albicans; settings: C. albicans ATCC 10231, 24 h, 35 °C
# Method: as §4, §5
# C. albicans ATCC 90028 = assay: MIC, twofold serial microdilution; assay type: cell-based, Candida albicans; settings: C. albicans ATCC 90028, 24 h, 35 °C
# Method: as §4, §5
# [4] = tested on: C. parapsilosis ATCC 22019; assay: MIC, twofold serial microdilution; assay type: cell-based, Candida parapsilosis; settings: C. parapsilosis ATCC 22019, 24 h, 35 °C
# Method: as §4, §5
# S. aureus 497 = assay: MIC, hospital MRSA strain; assay type: cell-based, Staphylococcus aureus; settings: hospital MRSA S. aureus 497
# Method: as §4, §5
# S. aureus 567 = assay: MIC, hospital MRSA strain; assay type: cell-based, Staphylococcus aureus; settings: hospital MRSA S. aureus 567
# Method: as §4, §5
# S. aureus 568 = assay: MIC, hospital MRSA strain; assay type: cell-based, Staphylococcus aureus; settings: hospital MRSA S. aureus 568
# Method: as §4, §5
# S. aureus 572 = assay: MIC, hospital MRSA strain; assay type: cell-based, Staphylococcus aureus; settings: for MIC: hospital MRSA S. aureus 572; for times more active than ciprofloxacin: S. aureus 572
# Method: as §4, §5
# S. aureus 586 = assay: MIC, hospital MRSA strain; assay type: cell-based, Staphylococcus aureus; settings: hospital MRSA S. aureus 586
# Method: as §4, §5
# [5] = tested on: Bacillus subtilis H17 (rec+); assay: Bacillus subtilis rec-assay, H17; assay type: cell-based; settings: B. subtilis H17; 256 µg per disc (NOQ 2 µg per disc)
# Method: DNA-damaging activity of compounds was tested by rec-assay using two genetically modified Bacillus subtilis strains: M45 (rec^−) and H17 (rec^+). Tested compounds were dissolved in DMSO, and 10 µL of each solution was dripped onto sterile cotton discs (Rotilabo) to load 256 µg of a given compound per 9 mm disc. Discs were placed on the surface nutrient agar plates (Difco), inoculated with 100 µL of bacterial overnight culture and incubated […] at 35 °C. After incubation, the growth inhibition zones were measured. […] Results of the genotoxicity test were estimated after 18 h of incubation at 35 °C by comparing the diameter of the inhibition zone on the B. subtilis M45 (rec^−) strain with that on the B. subtilis H17 (rec^+) strain.
Structure (SMILES),IC50 [1],IC50 [2],MIC [3],MIC (E. coli ATCC 25922),MIC (E. coli NCTC 10538),MIC (P. aeruginosa ATCC 15442),MIC (P. aeruginosa ATCC 27853),MIC (C. albicans ATCC 10231),MIC (C. albicans ATCC 90028),MIC [4],MIC (S. aureus 497),MIC (S. aureus 567),MIC (S. aureus 568),MIC (S. aureus 572),MIC (S. aureus 586),inhibition zone diameter [5],fold more active than cisplatin [2],times more active than ciprofloxacin (S. aureus 572)
"O=[N+]([O-])c1cc(NC2=[N+](c3ccc(Cl)c([N+](=O)[O-])c3)[Cu-2]3([S]2)[S]C(Nc2ccc(Cl)c([N+](=O)[O-])c2)=[N+]3c2ccc(Cl)c([N+](=O)[O-])c2)ccc1Cl [Compound 6, Copper (II) complex with 1,3-bis(4-chloro-3-nitrophenyl)thiourea]",21.5 ± 1.4 µM,20.3 ± 3.1 µM,8 µg/mL,128 µg/mL,128 µg/mL,128 µg/mL,128 µg/mL,64 µg/mL,64 µg/mL,64 µg/mL,32 µg/mL,32 µg/mL,32 µg/mL,32 µg/mL,32 µg/mL,16 mm,,
"O=[N+]([O-])c1cc([N+]2=C(Nc3ccc(Br)cc3)[S][Cu-2]23[S]C(Nc2ccc(Br)cc2)=[N+]3c2ccc(Cl)c([N+](=O)[O-])c2)ccc1Cl [Compound 3, Copper (II) complex with 1-(4-bromophenyl)-3-(4-chloro-3-nitrophenyl)thiourea]",19.2 ± 2.3 µM,8.8 ± 0.8 µM,16 µg/mL,>256 µg/mL,128 µg/mL,128 µg/mL,128 µg/mL,64 µg/mL,64 µg/mL,64 µg/mL,4 µg/mL,4 µg/mL,4 µg/mL,4 µg/mL,4 µg/mL,15 mm,1.2–3.1 fold,64 times
"O=[N+]([O-])c1cc([N+]2=C(Nc3ccc(F)c(Cl)c3)[S][Cu-2]23[S]C(Nc2ccc(F)c(Cl)c2)=[N+]3c2ccc(Cl)c([N+](=O)[O-])c2)ccc1Cl [Compound 4, Copper (II) complex with 1-(3-chloro-4-fluorophenyl)-3-(4-chloro-3-nitrophenyl)thiourea]",21.6 ± 2.9 µM,23.2 ± 1.6 µM,4 µg/mL,128 µg/mL,128 µg/mL,128 µg/mL,128 µg/mL,128 µg/mL,128 µg/mL,64 µg/mL,8 µg/mL,4 µg/mL,4 µg/mL,4 µg/mL,4 µg/mL,16 mm,,64 times
"O=[N+]([O-])c1cc([N+]2=C(Nc3ccccc3F)[S][Cu-2]23[S]C(Nc2ccccc2F)=[N+]3c2ccc(Cl)c([N+](=O)[O-])c2)ccc1Cl [Compound 7, Copper (II) complex with 1-(2-fluorophenyl)-3-(4-chloro-3-nitrophenyl)thiourea]",9.1 ± 0.8 µM,10.8 ± 1.3 µM,32 µg/mL,256 µg/mL,128 µg/mL,>256 µg/mL,128 µg/mL,128 µg/mL,128 µg/mL,128 µg/mL,8 µg/mL,4 µg/mL,8 µg/mL,4 µg/mL,8 µg/mL,15 mm,1.2–3.1 fold,64 times
"O=[N+]([O-])c1cc([N+]2=C(Nc3cccc(Br)c3)[S][Cu-2]23[S]C(Nc2cccc(Br)c2)=[N+]3c2ccc(Cl)c([N+](=O)[O-])c2)ccc1Cl [Compound 2, Copper (II) complex with 1-(3-bromophenyl)-3-(4-chloro-3-nitrophenyl)thiourea]",22.3 ± 1.8 µM,19.2 ± 2.2 µM,16 µg/mL,128 µg/mL,128 µg/mL,128 µg/mL,128 µg/mL,64 µg/mL,64 µg/mL,64 µg/mL,8 µg/mL,8 µg/mL,8 µg/mL,8 µg/mL,8 µg/mL,17 mm,,
"O=[N+]([O-])c1cc([N+]2=C(Nc3ccc(Cl)c(Cl)c3)[S][Cu-2]23[S]C(Nc2ccc(Cl)c(Cl)c2)=[N+]3c2ccc(Cl)c([N+](=O)[O-])c2)ccc1Cl [Compound 5, Copper (II) complex with 1-(4-chloro-3-nitrophenyl)-3-(3,4-dichlorophenyl)thiourea]",10.8 ± 2.6 µM,11.4 ± 2.4 µM,32 µg/mL,128 µg/mL,128 µg/mL,128 µg/mL,128 µg/mL,128 µg/mL,128 µg/mL,64 µg/mL,16 µg/mL,16 µg/mL,16 µg/mL,16 µg/mL,16 µg/mL,17 mm,1.2–3.1 fold,
